From US20100267561A1, “HERBICIDAL PYRIDAZINONE DERIVATIVES” (priority 2007, published 2010)

What was measured:
Type in all cases: in vivo
[1] = test system: goosegrass (Eleusine indica); assay: Test B pre-/postemergence plant response
In short: (§1)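 Preemergence and postemergence (plants 2-18 cm, 1- to 4-leaf stage) applications used test chemicals in a non-phytotoxic solvent with surfactant. Plants were held in a greenhouse 13 to 15 days, then rated visually against controls on a 0-100 scale (0 no effect, 100 complete control).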

[2] = test system: wheat (Triticum aestivum); assay: Test B pre-/postemergence plant response
In short: as §1

[3] = test system: green foxtail (Setaria viridis); assay: Test B pre-/postemergence plant response
In short: as §1

[4] = test system: morningglory (Ipomoea coccinea); assay: Test B pre-/postemergence plant response
In short: as §1

[5] = test system: soybean (Glycine max); assay: Test B pre-/postemergence plant response
In short: as §1

[6] = test system: bermudagrass (Cynodon dactylon); assay: Test B pre-/postemergence plant response
In short: as §1

[7] = test system: Italian ryegrass (Lolium multiflorum); assay: Test B pre-/postemergence plant response
In short: as §1

[8] = test system: large crabgrass (Digitaria sanguinalis); assay: Test B pre-/postemergence plant response
In short: as §1

[9] = test system: surinam grass (Brachiaria decumbens); assay: Test B pre-/postemergence plant response
In short: as §1

[10] = test system: eastern black (E.B.) nightshade (Solanum ptycanthum); assay: Test B pre-/postemergence plant response; details: Preemergence
In short: as §1

[11] = test system: cocklebur (Xanthium strumarium); assay: Test B pre-/postemergence plant response
In short: as §1

[12] = test system: Russian thistle (Salsola iberica); assay: Test B pre-/postemergence plant response; details: Preemergence
In short: as §1

[13] = test system: johnsongrass (Sorghum halepense); assay: Test B pre-/postemergence plant response
In short: as §1

[14] = test system: winter barley (Hordeum vulgare); assay: Test B postemergence plant response; details: Postemergence
In short: (§2)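 Postemergence greenhouse test; plants at 2 to 18 cm (1- to 4-leaf stage) given formulated test chemical, held 13 to 15 days, then visually rated against untreated controls on a 0 (no effect) to 100 (complete control) scale; dash means no result.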

[15] = test system: windgrass (Apera spica-venti); assay: Test B postemergence plant response; details: Postemergence
In short: as §2

[16] = test system: chickweed (Stellaria media); assay: Test B postemergence plant response; details: Postemergence
In short: as §2

[17] = Postemergence, 31 g ai/ha, scale 0 to 100, 0 no effect, 100 complete control
[18] = Postemergence, 62 g ai/ha, scale 0 to 100
[19] = Postemergence, 125 g ai/ha, scale 0 to 100
[20] = Postemergence, 250 g ai/ha, scale 0 to 100
[21] = Preemergence, 31 g ai/ha, 0 to 100 scale, 0 no effect, 100 complete control
[22] = Preemergence, 62 g ai/ha, scale 0 to 100
[23] = Preemergence, 125 g ai/ha, scale 0 to 100
[24] = Preemergence, 250 g ai/ha, scale 0 to 100
[25] = 31 g ai/ha, 0 to 100 scale, 0 no effect, 100 complete control
[26] = 31 g ai/ha, scale 0 to 100, 0 no effect, 100 complete control

Structure (SMILES): CCc1cc(-c2ccc(C(F)(F)F)cc2)nn1-c1c(O)c(C)nn(C)c1=O [Compound 16]
- Plant response rating, Goosegrass [1, 17]: 60
- Plant response rating, Goosegrass [1, 18]: 65
- Plant response rating, Goosegrass [1, 19]: 75
- Plant response rating, Goosegrass [1, 20]: 80
- Plant response rating, Goosegrass [1, 21]: 0
- Plant response rating, Goosegrass [1, 22]: 0
- Plant response rating, Goosegrass [1, 23]: 50
- Plant response rating, Goosegrass [1, 24]: 60
- Plant response rating, Wheat [2, 17]: 95
- Plant response rating, Wheat [2, 18]: 98
- Plant response rating, Wheat [2, 19]: 100
- Plant response rating, Wheat [2, 20]: 100
- Plant response rating, Wheat [2, 21]: 15
- Plant response rating, Wheat [2, 22]: 90
- Plant response rating, Wheat [2, 23]: 98
- Plant response rating, Wheat [2, 24]: 100
- Plant response rating, Foxtail, Green [3, 17]: 95
- Plant response rating, Foxtail, Green [3, 18]: 98
- Plant response rating, Foxtail, Green [3, 19]: 100
- Plant response rating, Foxtail, Green [3, 20]: 100
- Plant response rating, Foxtail, Green [3, 21]: 100
- Plant response rating, Foxtail, Green [3, 22]: 100
- Plant response rating, Foxtail, Green [3, 23]: 100
- Plant response rating, Foxtail, Green [3, 24]: 100
- Plant response rating, Morningglory [4, 17]: 0
- Plant response rating, Morningglory [4, 18]: 0
- Plant response rating, Morningglory [4, 19]: 0
- Plant response rating, Morningglory [4, 20]: 0
- Plant response rating, Morningglory [4, 21]: 0
- Plant response rating, Morningglory [4, 22]: 0
- Plant response rating, Morningglory [4, 23]: 0
- Plant response rating, Morningglory [4, 24]: 0
- Plant response rating, Soybean [5, 17]: 0
- Plant response rating, Soybean [5, 18]: 0
- Plant response rating, Soybean [5, 19]: 0
- Plant response rating, Soybean [5, 20]: 0
- Plant response rating, Soybean [5, 24]: 0
- Bermudagrass plant response rating ([6]; 250 g ai/ha, preemergence, 0-100 scale): 100
- Plant response rating, Bermudagrass [6, 17]: 65
- Plant response rating, Bermudagrass [6, 18]: 100
- Plant response rating, Bermudagrass [6, 19]: 100
- Plant response rating, Bermudagrass [6, 20]: 100
- Plant response rating, Bermudagrass [6, 21]: 0
- Plant response rating, Bermudagrass [6, 22]: 0
- Plant response rating, Bermudagrass [6, 23]: 98
- Plant response rating, Ryegrass, Italian [7, 17]: 100
- Plant response rating, Ryegrass, Italian [7, 18]: 100
- Plant response rating, Ryegrass, Italian [7, 19]: 100
- Plant response rating, Ryegrass, Italian [7, 20]: 100
- Plant response rating, Ryegrass, Italian [7, 21]: 100
- Plant response rating, Ryegrass, Italian [7, 22]: 100
- Plant response rating, Ryegrass, Italian [7, 23]: 100
- Plant response rating, Ryegrass, Italian [7, 24]: 100
- Plant response rating, Crabgrass, Large [8, 17]: 95
- Plant response rating, Crabgrass, Large [8, 18]: 95
- Plant response rating, Crabgrass, Large [8, 19]: 100
- Plant response rating, Crabgrass, Large [8, 20]: 100
- Plant response rating, Crabgrass, Large [8, 21]: 0
- Plant response rating, Crabgrass, Large [8, 22]: 0
- Plant response rating, Crabgrass, Large [8, 23]: 20
- Plant response rating, Crabgrass, Large [8, 24]: 40
- Plant response rating, Surinam Grass [9, 17]: 90
- Plant response rating, Surinam Grass [9, 18]: 100
- Plant response rating, Surinam Grass [9, 19]: 100
- Plant response rating, Surinam Grass [9, 20]: 100
- Plant response rating, Surinam Grass [9, 21]: 45
- Plant response rating, Surinam Grass [9, 22]: 55
- Plant response rating, Surinam Grass [9, 23]: 95
- Plant response rating, Surinam Grass [9, 24]: 100
- Plant response rating, Nightshade, E. B. [10, 25]: 0
- Plant response rating, Nightshade, E. B. ([10]; 62 g ai/ha, scale 0 to 100): 0
- Plant response rating, Nightshade, E. B. ([10]; 125 g ai/ha, scale 0 to 100): 0
- Plant response rating, Nightshade, E. B. ([10]; 250 g ai/ha, scale 0 to 100): 0
- Plant response rating, Cocklebur [11, 17]: 0
- Plant response rating, Cocklebur [11, 18]: 0
- Plant response rating, Cocklebur [11, 19]: 0
- Plant response rating, Cocklebur [11, 20]: 0
- Plant response rating, Cocklebur [11, 21]: 0
- Plant response rating, Cocklebur [11, 22]: 0
- Plant response rating, Cocklebur [11, 23]: 0
- Plant response rating, Cocklebur [11, 24]: 0
- Plant response rating, Russian Thistle [12, 25]: 0
- Plant response rating, Russian Thistle ([12]; 62 g ai/ha, scale 0 to 100): 0
- Plant response rating, Russian Thistle ([12]; 125 g ai/ha, scale 0 to 100): 0
- Plant response rating, Russian Thistle ([12]; 250 g ai/ha, scale 0 to 100): 0
- Plant response rating, Johnsongrass [13, 17]: 98
- Plant response rating, Johnsongrass [13, 18]: 100
- Plant response rating, Johnsongrass [13, 19]: 100
- Plant response rating, Johnsongrass [13, 20]: 100
- Plant response rating, Johnsongrass [13, 21]: 25
- Plant response rating, Johnsongrass [13, 22]: 70
- Plant response rating, Johnsongrass [13, 23]: 100
- Plant response rating, Johnsongrass [13, 24]: 100
- Plant response rating, Barley [14, 26]: 90
- Plant response rating, Barley ([14]; 62 g ai/ha, scale 0 to 100): 90
- Plant response rating, Barley ([14]; 125 g ai/ha, scale 0 to 100): 95
- Plant response rating, Barley ([14]; 250 g ai/ha, scale 0 to 100): 98
- Plant response rating, Windgrass [15, 26]: 90
- Plant response rating, Windgrass ([15]; 62 g ai/ha, scale 0 to 100): 100
- Plant response rating, Windgrass ([15]; 125 g ai/ha, scale 0 to 100): 100
- Plant response rating, Windgrass ([15]; 250 g ai/ha, scale 0 to 100): 100
- Plant response rating, Chickweed [16, 26]: 0
- Plant response rating, Chickweed ([16]; 62 g ai/ha, scale 0 to 100): 0
- Plant response rating, Chickweed ([16]; 125 g ai/ha, scale 0 to 100): 0
- Plant response rating, Chickweed ([16]; 250 g ai/ha, scale 0 to 100): 0
